Laboratory results: the supplement of paper PMC10307832

Key:
Assay in all cases: relative viability (nuclei count vs DMSO), 5 days (fraction); higher = more cells survive
NCI-H2009 = system: NCI-H2009
In short: (§1)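 Lung cancer cell lines, seeded in 1536-well plates, were treated the following day by pin tool with a single drug or with five library-drug doses (not always all listed) in √10 steps on top of a fixed anchor-drug dose. Cells were fixed and nuclei stained in one step after 5 days, and nuclei were counted. Relative viability is the nuclei count for treated wells divided by that for vehicle wells, reported as medians of duplicate plates.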

UMC-11 = system: UMC-11
In short: as §1

PC-14 = system: PC-14
In short: as §1

NCI-H1395 = system: NCI-H1395
In short: as §1

NCI-H596 = system: NCI-H596
In short: as §1

NCI-H1755 = system: NCI-H1755
In short: as §1

HCC-827 = system: HCC-827
In short: as §1

NCI-H2170 = system: NCI-H2170
In short: as §1

NCI-H1650 = system: NCI-H1650
In short: as §1

LCLC-97TM1 = system: LCLC-97TM1
In short: as §1

HCC-78 = system: HCC-78
In short: as §1

SK-LU-1 = system: SK-LU-1
In short: as §1

Q: How did the relative viability (NCI-H2009; first compound 0.001 µM) turn out when Cc1cn(-c2cc(NC(=O)c3ccc(C)c(Nc4nccc(-c5cccnc5)n4)c3)cc(C(F)(F)F)c2)cn1 [Nilotinib] + CS(=O)(=O)CCNCc1ccc(-c2ccc3ncnc(Nc4ccc(OCc5cccc(F)c5)c(Cl)c4)c3c2)o1 [Lapatinib] (partner 2 µM) was run?
A: 0.788

Q: And the relative viability (NCI-H2009; first compound 0.003162 µM)?
A: 1.1

Q: What about the relative viability (NCI-H2009; first compound 0.01 µM) of the same molecule?
A: 1.08

Q: And the relative viability (NCI-H2009; first compound 0.03162 µM)?
A: 1.01

Q: What about the relative viability (NCI-H2009; first compound 0.1 µM) of the same molecule?
A: 0.191

Q: What about the relative viability (UMC-11; first compound 0.001 µM) of the same molecule?
A: 0.995

Q: What about the relative viability (UMC-11; first compound 0.003162 µM) of the same molecule?
A: 1.2

Q: And the relative viability (UMC-11; first compound 0.01 µM)?
A: 1.27

Q: What about the relative viability (UMC-11; first compound 0.03162 µM) of the same molecule?
A: 0.851

Q: And the relative viability (UMC-11; first compound 0.1 µM)?
A: 0.255

Q: And the relative viability (PC-14; first compound 0.001 µM)?
A: 0.328

Q: And the relative viability (PC-14; first compound 0.003162 µM)?
A: 0.422

Q: What about the relative viability (PC-14; first compound 0.01 µM) of the same molecule?
A: 0.367

Q: What about the relative viability (PC-14; first compound 0.03162 µM) of the same molecule?
A: 0.318

Q: And the relative viability (PC-14; first compound 0.1 µM)?
A: 0.277

Q: And the relative viability (NCI-H1395; first compound 0.001 µM)?
A: 1.02

Q: And the relative viability (NCI-H1395; first compound 0.003162 µM)?
A: 0.575

Q: And the relative viability (NCI-H1395; first compound 0.01 µM)?
A: 0.9

Q: What about the relative viability (NCI-H1395; first compound 0.03162 µM) of the same molecule?
A: 1.14

Q: What about the relative viability (NCI-H1395; first compound 0.1 µM) of the same molecule?
A: 0.596

Q: And the relative viability (NCI-H596; first compound 0.001 µM)?
A: 1.01

Q: What about the relative viability (NCI-H596; first compound 0.003162 µM) of the same molecule?
A: 1.15

Q: What about the relative viability (NCI-H596; first compound 0.01 µM) of the same molecule?
A: 1.09

Q: And the relative viability (NCI-H596; first compound 0.03162 µM)?
A: 0.984

Q: And the relative viability (NCI-H596; first compound 0.1 µM)?
A: 0.88

Q: What about the relative viability (NCI-H1755; first compound 0.001 µM) of the same molecule?
A: 1.02

Q: And the relative viability (NCI-H1755; first compound 0.003162 µM)?
A: 1.35

Q: What about the relative viability (NCI-H1755; first compound 0.01 µM) of the same molecule?
A: 1.43

Q: And the relative viability (NCI-H1755; first compound 0.03162 µM)?
A: 0.986

Q: What about the relative viability (NCI-H1755; first compound 0.1 µM) of the same molecule?
A: 0.551

Q: What about the relative viability (HCC-827; first compound 0.001 µM) of the same molecule?
A: 0.233

Q: What about the relative viability (HCC-827; first compound 0.003162 µM) of the same molecule?
A: 0.184

Q: And the relative viability (HCC-827; first compound 0.01 µM)?
A: 0.154

Q: And the relative viability (HCC-827; first compound 0.1 µM)?
A: 0.184

Q: And the relative viability (NCI-H2170; first compound 0.001 µM)?
A: 0.26

Q: What about the relative viability (NCI-H2170; first compound 0.003162 µM) of the same molecule?
A: 0.285

Q: What about the relative viability (NCI-H2170; first compound 0.01 µM) of the same molecule?
A: 0.272

Q: What about the relative viability (NCI-H2170; first compound 0.03162 µM) of the same molecule?
A: 0.28

Q: And the relative viability (NCI-H2170; first compound 0.1 µM)?
A: 0.268

Q: And the relative viability (NCI-H1650; first compound 0.001 µM)?
A: 0.851

Q: And the relative viability (NCI-H1650; first compound 0.003162 µM)?
A: 0.931

Q: What about the relative viability (NCI-H1650; first compound 0.01 µM) of the same molecule?
A: 0.917

Q: What about the relative viability (NCI-H1650; first compound 0.03162 µM) of the same molecule?
A: 0.668

Q: And the relative viability (NCI-H1650; first compound 0.1 µM)?
A: 0.424

Q: What about the relative viability (LCLC-97TM1; first compound 0.001 µM) of the same molecule?
A: 0.777

Q: And the relative viability (LCLC-97TM1; first compound 0.003162 µM)?
A: 1.05

Q: What about the relative viability (LCLC-97TM1; first compound 0.01 µM) of the same molecule?
A: 1.12

Q: And the relative viability (LCLC-97TM1; first compound 0.03162 µM)?
A: 1.16

Q: What about the relative viability (LCLC-97TM1; first compound 0.1 µM) of the same molecule?
A: 0.268

Q: What about the relative viability (HCC-78; first compound 0.001 µM) of the same molecule?
A: 0.889

Q: What about the relative viability (HCC-78; first compound 0.003162 µM) of the same molecule?
A: 0.718

Q: And the relative viability (HCC-78; first compound 0.01 µM)?
A: 0.779

Q: And the relative viability (HCC-78; first compound 0.03162 µM)?
A: 0.491

Q: What about the relative viability (HCC-78; first compound 0.1 µM) of the same molecule?
A: 0.571

Q: What about the relative viability (SK-LU-1; first compound 0.001 µM) of the same molecule?
A: 0.769

Q: What about the relative viability (SK-LU-1; first compound 0.003162 µM) of the same molecule?
A: 0.855
